Measured values from ChEMBL document CHEMBL4004849, “Tetrazolylmethyl quinolines: Design, docking studies, synthesis, anticancer and antifungal analyses” (2017).
Values after ≈ are worked out from the molar mass of the structure shown. Active and inactive are the calls of the source. The calls are words filed in the database; no cut-off is given here.

Legend:
Format in all cases: functional
COLO 205 = test: Growth inhibition of human COLO205 cells at 10^-5 M incubated for 48 hrs by sulforhodamine B assay relative to control
NCI-H23 = test: Growth inhibition of human NCI-H23 cells at 10^-5 M incubated for 48 hrs by sulforhodamine B assay relative to control
UACC-62 = test: Growth inhibition of human UACC62 cells at 10^-5 M incubated for 48 hrs by sulforhodamine B assay relative to control
NCI-H522 = test: Growth inhibition of human NCI-H522 cells at 10^-5 M incubated for 48 hrs by sulforhodamine B assay relative to control
SR = test: Growth inhibition of human SR cells at 10^-5 M incubated for 48 hrs by sulforhodamine B assay relative to control
BT-549 = test: Growth inhibition of human BT549 cells at 10^-5 M incubated for 48 hrs by sulforhodamine B assay relative to control
SK-OV-3 = test: Growth inhibition of human SKOV3 cells at 10^-5 M incubated for 48 hrs by sulforhodamine B assay relative to control
HCT-116 = test: Growth inhibition of human HCT116 cells at 10^-5 M incubated for 48 hrs by sulforhodamine B assay relative to control
RXF 393 = test: Growth inhibition of human RXF393 cells at 10^-5 M incubated for 48 hrs by sulforhodamine B assay relative to control
Aspergillus fumigatus = test: Antifungal activity against Aspergillus fumigatus after 24 hrs by serial dilution method
ACHN = test: Growth inhibition of human ACHN cells at 10^-5 M incubated for 48 hrs by sulforhodamine B assay relative to control
SF-268 = test: Growth inhibition of human SF268 cells at 10^-5 M incubated for 48 hrs by sulforhodamine B assay relative to control
SF-539 = test: Growth inhibition of human SF539 cells at 10^-5 M incubated for 48 hrs by sulforhodamine B assay relative to control
LOX IMVI = test: Growth inhibition of human LOXIMVI cells at 10^-5 M incubated for 48 hrs by sulforhodamine B assay relative to control
Candida albicans [1] = test: Antifungal activity against Candida albicans after 24 hrs by serial dilution method
MDA-MB-231 = test: Growth inhibition of human MDA-MB-231/ATCC cells at 10^-5 M incubated for 48 hrs by sulforhodamine B assay relative to control
UO-31 = test: Growth inhibition of human UO31 cells at 10^-5 M incubated for 48 hrs by sulforhodamine B assay relative to control
EKVX = test: Growth inhibition of human EKVX cells at 10^-5 M incubated for 48 hrs by sulforhodamine B assay relative to control
SNB-75 = test: Growth inhibition of human SNB75 cells at 10^-5 M incubated for 48 hrs by sulforhodamine B assay relative to control
HCT-15 = test: Growth inhibition of human HCT15 cells at 10^-5 M incubated for 48 hrs by sulforhodamine B assay relative to control
U-251 = test: Growth inhibition of human U251 cells at 10^-5 M incubated for 48 hrs by sulforhodamine B assay relative to control
TK-10 = test: Growth inhibition of human TK10 cells at 10^-5 M incubated for 48 hrs by sulforhodamine B assay relative to control
M14 = test: Growth inhibition of human M14 cells at 10^-5 M incubated for 48 hrs by sulforhodamine B assay relative to control
HL-60(TB) = test: Growth inhibition of human HL-60(TB) cells at 10^-5 M incubated for 48 hrs by sulforhodamine B assay relative to control
UACC-257 = test: Growth inhibition of human UACC257 cells at 10^-5 M incubated for 48 hrs by sulforhodamine B assay relative to control
KM12 = test: Growth inhibition of human KM12 cells at 10^-5 M incubated for 48 hrs by sulforhodamine B assay relative to control
Candida albicans [2] = test: Antifungal activity against Candida albicans at 100 ug/ml by disc diffusion method; conditions: read-out: IZ
IGROV-1 = test: Growth inhibition of human IGROV1 cells at 10^-5 M incubated for 48 hrs by sulforhodamine B assay relative to control
NCI-H460 = test: Growth inhibition of human NCI-H460 cells at 10^-5 M incubated for 48 hrs by sulforhodamine B assay relative to control
SK-MEL-5 = test: Growth inhibition of human SK-MEL-5 cells at 10^-5 M incubated for 48 hrs by sulforhodamine B assay relative to control
SK-MEL-2 = test: Growth inhibition of human SK-MEL-2 cells at 10^-5 M incubated for 48 hrs by sulforhodamine B assay relative to control
SN12C = test: Growth inhibition of human SN12C cells at 10^-5 M incubated for 48 hrs by sulforhodamine B assay relative to control
T47D = test: Growth inhibition of human T47D cells at 10^-5 M incubated for 48 hrs by sulforhodamine B assay relative to control
Malme-3M = test: Growth inhibition of human MALME-3M cells at 10^-5 M incubated for 48 hrs by sulforhodamine B assay relative to control
A549 = test: Growth inhibition of human A549/ATCC cells at 10^-5 M incubated for 48 hrs by sulforhodamine B assay relative to control
CAKI-1 = test: Growth inhibition of human Caki1 cells at 10^-5 M incubated for 48 hrs by sulforhodamine B assay relative to control
MOLT-4 = test: Growth inhibition of human MOLT4 cells at 10^-5 M incubated for 48 hrs by sulforhodamine B assay relative to control
MDA-MB-435 = test: Growth inhibition of human MDA-MB-435 cells at 10^-5 M incubated for 48 hrs by sulforhodamine B assay relative to control
HCC 2998 = test: Growth inhibition of human HCC2998 cells at 10^-5 M incubated for 48 hrs by sulforhodamine B assay relative to control
NCI-H226 = test: Growth inhibition of human NCI-H226 cells at 10^-5 M incubated for 48 hrs by sulforhodamine B assay relative to control
SF-295 = test: Growth inhibition of human SF295 cells at 10^-5 M incubated for 48 hrs by sulforhodamine B assay relative to control
SW-620 = test: Growth inhibition of human SW620 cells at 10^-5 M incubated for 48 hrs by sulforhodamine B assay relative to control
SNB-19 = test: Growth inhibition of human SNB19 cells at 10^-5 M incubated for 48 hrs by sulforhodamine B assay relative to control
OVCAR-8 = test: Growth inhibition of human OVCAR8 cells at 10^-5 M incubated for 48 hrs by sulforhodamine B assay relative to control

## Clc1nc2ccc(Br)cc2cc1Cn1nnnc1Cc1ccccc1
COLO 205
  growth inhibition (GI): Active
NCI-H23
  growth inhibition (GI): Active
UACC-62
  growth inhibition (GI): Active
NCI-H522
  growth inhibition (GI): Active
SR
  growth inhibition (GI): Active
BT-549
  growth inhibition (GI): Active
SK-OV-3
  growth inhibition (GI): Active
HCT-116
  growth inhibition (GI): Active
RXF 393
  growth inhibition (GI): Active
Aspergillus fumigatus
  MIC: 10 µg/mL (≈ 24.1 µM)
ACHN
  growth inhibition (GI): Active
SF-268
  growth inhibition (GI): Active
SF-539
  growth inhibition (GI): Active
LOX IMVI
  growth inhibition (GI): Active
Candida albicans [1]
  MIC: 10 µg/mL (≈ 24.1 µM)
MDA-MB-231
  growth inhibition (GI): Active
UO-31
  growth inhibition (GI): Active
EKVX
  growth inhibition (GI): Active
SNB-75
  growth inhibition (GI): Active
HCT-15
  growth inhibition (GI): Active
U-251
  growth inhibition (GI): Active
TK-10
  growth inhibition (GI): Active
M14
  growth inhibition (GI): Active
HL-60(TB)
  growth inhibition (GI): Active
UACC-257
  growth inhibition (GI): Active
KM12
  growth inhibition (GI): Active
Candida albicans [2]
  zone of inhibition at 100 µg/mL: 16 mm
IGROV-1
  growth inhibition (GI): Active
NCI-H460
  growth inhibition (GI): Active
SK-MEL-5
  growth inhibition (GI): Active
SK-MEL-2
  growth inhibition (GI): Active
SN12C
  growth inhibition (GI): Active
T47D
  growth inhibition (GI): Active
Malme-3M
  growth inhibition (GI): Active
A549
  growth inhibition (GI): Active
CAKI-1
  growth inhibition (GI): Active
MOLT-4
  growth inhibition (GI): Active
MDA-MB-435
  growth inhibition (GI): Active
HCC 2998
  growth inhibition (GI): Active
NCI-H226
  growth inhibition (GI): Active
SF-295
  growth inhibition (GI): Active
SW-620
  growth inhibition (GI): Active
SNB-19
  growth inhibition (GI): Active
OVCAR-8
  growth inhibition (GI): Active

## Fc1ccc2nc(Cl)c(Cn3nnc(Cc4ccccc4)n3)cc2c1
COLO 205
  growth inhibition (GI): Active
NCI-H23
  growth inhibition (GI): Active
UACC-62
  growth inhibition (GI): Active
NCI-H522
  growth inhibition (GI): Active
SR
  growth inhibition (GI): Active
BT-549
  growth inhibition (GI): Active
SK-OV-3
  growth inhibition (GI): Active
HCT-116
  growth inhibition (GI): Active
RXF 393
  growth inhibition (GI): Active
Aspergillus fumigatus
  MIC: 25 µg/mL (≈ 70.7 µM)
ACHN
  growth inhibition (GI): Active
SF-268
  growth inhibition (GI): Active
SF-539
  growth inhibition (GI): Active
LOX IMVI
  growth inhibition (GI): Active
Candida albicans [1]
  MIC: 25 µg/mL (≈ 70.7 µM)
MDA-MB-231
  growth inhibition (GI): Active
UO-31
  growth inhibition (GI): Active
EKVX
  growth inhibition (GI): Active
SNB-75
  growth inhibition (GI): Active
HCT-15
  growth inhibition (GI): Active
U-251
  growth inhibition (GI): Active
TK-10
  growth inhibition (GI): Active
M14
  growth inhibition (GI): Active
HL-60(TB)
  growth inhibition (GI): Active
UACC-257
  growth inhibition (GI): Active
KM12
  growth inhibition (GI): Active
Candida albicans [2]
  zone of inhibition at 100 µg/mL: 12 mm
IGROV-1
  growth inhibition (GI): Active
NCI-H460
  growth inhibition (GI): Active
SK-MEL-5
  growth inhibition (GI): Active
SK-MEL-2
  growth inhibition (GI): Active
SN12C
  growth inhibition (GI): Active
T47D
  growth inhibition (GI): Active
Malme-3M
  growth inhibition (GI): Active
A549
  growth inhibition (GI): Active
CAKI-1
  growth inhibition (GI): Active
MOLT-4
  growth inhibition (GI): Active
MDA-MB-435
  growth inhibition (GI): Active
HCC 2998
  growth inhibition (GI): Active
NCI-H226
  growth inhibition (GI): Active
SF-295
  growth inhibition (GI): Active
SW-620
  growth inhibition (GI): Active
SNB-19
  growth inhibition (GI): Active
OVCAR-8
  growth inhibition (GI): Active

## Clc1nc2ccccc2cc1Cn1nnnc1CSc1ccccc1
COLO 205
  growth inhibition (GI): Active
NCI-H23
  growth inhibition (GI): Active
UACC-62
  growth inhibition (GI): Active
NCI-H522
  growth inhibition (GI): Active
SR
  growth inhibition (GI): Active
BT-549
  growth inhibition (GI): Active
SK-OV-3
  growth inhibition (GI): Active
HCT-116
  growth inhibition (GI): Active
RXF 393
  growth inhibition (GI): Active
Aspergillus fumigatus
  MIC: 25 µg/mL (≈ 68 µM)
ACHN
  growth inhibition (GI): Active
SF-268
  growth inhibition (GI): Active
SF-539
  growth inhibition (GI): Active
LOX IMVI
  growth inhibition (GI): Active
Candida albicans [1]
  MIC: 10 µg/mL (≈ 27.2 µM)
MDA-MB-231
  growth inhibition (GI): Active
UO-31
  growth inhibition (GI): Active
EKVX
  growth inhibition (GI): Active
SNB-75
  growth inhibition (GI): Active
HCT-15
  growth inhibition (GI): Active
U-251
  growth inhibition (GI): Active
TK-10
  growth inhibition (GI): Active
M14
  growth inhibition (GI): Active
HL-60(TB)
  growth inhibition (GI): Active
UACC-257
  growth inhibition (GI): Active
KM12
  growth inhibition (GI): Active
Candida albicans [2]
  zone of inhibition at 100 µg/mL: 12 mm
IGROV-1
  growth inhibition (GI): Active
NCI-H460
  growth inhibition (GI): Active
SK-MEL-5
  growth inhibition (GI): Active
SK-MEL-2
  growth inhibition (GI): Active
SN12C
  growth inhibition (GI): Active
T47D
  growth inhibition (GI): Active
Malme-3M
  growth inhibition (GI): Active
A549
  growth inhibition (GI): Active
CAKI-1
  growth inhibition (GI): Active
MOLT-4
  growth inhibition (GI): Active
MDA-MB-435
  growth inhibition (GI): Active
HCC 2998
  growth inhibition (GI): Active
NCI-H226
  growth inhibition (GI): Active
SF-295
  growth inhibition (GI): Active
SW-620
  growth inhibition (GI): Active
SNB-19
  growth inhibition (GI): Active
OVCAR-8
  growth inhibition (GI): Active
